{
  "source": "patent US20230025280A1",
  "about": "“PH RESPONSIVE COMPOSITIONS, FORMULATIONS, AND METHODS OF IMAGING A TUMOR” (ONCONANO MEDICINE, INC, priority 2019, published 2023)",
  "key": {"[1]": {"tested_on": "solid cancers (HNSCC, breast cancer, esophageal cancer, or colorectal cancer)", "test": "Intraoperative fluorescence imaging of tumors (in vivo and back table; MFI, CNR, TBR)", "parameters": "species or system human", "details": "for In Vivo CNR / In Vivo TBR: per patient, open field cameras; for Patient tumors showing Compound 1 fluorescence intraoperatively: 0.1 to 1.2 mg/kg, 24±8 h post dose; for Tumors visualized intraoperatively by Compound 1 fluorescence / Tumors that could not be visualized intraoperatively: Phase 1 overall", "description": "During surgery, intraoperative images of Compound 1 fluorescence were obtained from the primary tumors and metastatic lymph nodes as well as the surrounding tissue which include normal noncancerous tissues using NIR camera(s). This may be in vivo and/or ex vivo imaging of resected specimens. If the surgeon considered it safe, up to a maximum of 10 study related biopsies were taken from the regions with Compound 1 fluorescence that were otherwise not suspected as tumor clinically. Feasibility to image tumors with Compound 1 using multiple NIR cameras was evaluated.\nIntraoperative images and videos of “open surgery” were obtained using either the NOVADAQ SPY Elite or the SurgVision Explorer Air. The distance of the camera to the tumor was approximately 20 cm for the Explorer Air and 30 cm for the NOVADAQ SPY, according to manual instructions. The NOVADAQ SPY camera was only able to make fluorescent videos, which could be converted to images during post-processing. The settings for raw data acquisition for this camera were fixed. For the Explorer Air, attempt was made to use the same settings (exposure time and gain) for each patient to allow direct comparison between the images obtained from both the systems, however, depending on the amount of fluorescence visible during surgery, adjustments were needed in some cases due to saturation of the camera system. In some patients, the Olympus NIR laparoscope and Da Vinci Firefly camera systems were used when no open surgery was performed. Systems were used according to the manufacturer's manual.\nFirst, pre-excision fluorescence images and/or movies of the tumor and surrounding areas were made. After surgical excision, images of the wound bed were obtained. In cases where a fluorescence region was visible in the wound bed, a biopsy was taken when feasible, and the excised specimen imaged on all sides on the back table in the operating room. If applicable, lymph nodes were imaged when possible in situ and on the back table, after which the wound bed of the lymph node dissection was imaged again.\nDesignated imaging study staff performed fluorescence imaging. The surgeon was blinded to the pre-excision imaging to avoid any bias on standard surgery, but was able to look at a second monitor for white-light images while performing the surgical procedure. The surgeon assisted in the wound bed and back table imaging. During the imaging procedure, the ambient light in the surgical theatre was switched off to prevent possible interaction with the fluorescence imaging procedure itself.\nImages were processed using Fiji (ImageJ, version 2.0.0). Images were scaled on a per-patient basis, based on the maximum and minimum fluorescent intensity per pixel.\nImmediately after excision, the whole specimen was imaged on all 6 resection planes (e.g., frontal, dorsal, lateral, medial, caudal and cranial) using both the designated intraoperative camera system as well as the LI-COR PEARL® Trilogy system within a maximum duration of 60 minutes after surgical excision of the specimen (intraoperative back table imaging). […] Specimens were inked with blue and black ink to mark resection planes.\nA macroscopic correlation between visible white light of the tumor areas and corresponding fluorescence images was made. After drawing ROIs containing macroscopic tumor and ROIs containing background, MFI of both tumor and background areas were calculated. Fluorescence ratios (CNR, TBR) were calculated on a per patient basis (3 measurements per patient) following the calculations described above."}, "[2]": {"test": "pH-dependent activation of Compound 1 in human plasma"}, "[3]": {"test": "Safety (adverse effects) in dog-patients", "format": "in vivo", "details": "7 dogs; 0.5-2.0 mg/kg; injection through discharge", "experimental": "Materials and methods: After evaluation and recruitment for the study, dog-patients underwent (A) pre-operation analysis to identify possible types of lesion, and (B) Compound 1 tracer was administrated at 0.5 to 2.0 mg/kg, 18-78 hours prior to surgery. During the surgery (C) intra-operative imaging was performed using a Hamamatsu PDE or custom NIR camera before and after tumor removal (or after limb amputations). Resected tissues were (D) imaged with a LI-COR Pearl Imaging station and tumor-to-normal-tissue ratios were calculated accordingly. The resected tissues were then (E) preserved for histopathology validation. Safety was assessed separately in terms of adverse effects through physical examinations, laboratory tests and the recording of adverse events from infusion through discharge from hospital.\nResults: A summary of the data from spayed or neutered dog patients that were recruited for the study is shown below (Table 16). Results from a total of seven dogs of different breeds, aged 4-12 years, body weights ranging from 20.9-59.5 kg, and with a range of tumors ware presented, including instances where more than one tumor was present. Doses studied thus far ranged from 0.5-2.0 mg/kg. […] Both acute and chronic adverse effects were monitored from the time of injection through discharge of the animals from the hospital and follow-up appointments (to remove sutures) and noted."}},
  "note": "Where “and” joins values, the source holds several entries; their conditions need not be identical. Equal values may be shown once.",
  "data": [
    {"substance": "PEO90-140-b-P(DBA60-150-r-ICG0-3-r-AMA0-3) [Compound 1]", "values": [
      {"measurement": "In Vivo CNR", "setting": "[1]; 0.1 mg/kg, HNSCC", "result": "2.9 and 21.5 and 3.3"},
      {"measurement": "In Vivo TBR", "setting": "[1]; 0.1 mg/kg, HNSCC", "result": "1.7 (2×) and 5.7"},
      {"measurement": "In Vivo CNR", "setting": "[1]; 0.5 mg/kg, BC", "result": 2.5},
      {"measurement": "In Vivo TBR", "setting": "[1]; 0.5 mg/kg, BC", "result": 1.6},
      {"measurement": "In Vivo CNR", "setting": "[1]; 0.5 mg/kg, HNSCC", "result": "17.3 and 29.3"},
      {"measurement": "In Vivo TBR", "setting": "[1]; 0.5 mg/kg, HNSCC", "result": "3.3 and 5.0"},
      {"measurement": "In Vivo CNR", "setting": "[1]; 0.8 mg/kg, BC", "result": 12.7},
      {"measurement": "In Vivo TBR", "setting": "[1]; 0.8 mg/kg, BC", "result": 3.7},
      {"measurement": "In Vivo CNR", "setting": "[1]; 0.8 mg/kg, HNSCC", "result": 4.1},
      {"measurement": "In Vivo TBR", "setting": "[1]; 0.8 mg/kg, HNSCC", "result": 2.7},
      {"measurement": "Patients for whom in vivo (intraoperative) imaging was feasible", "setting": "[1]; 1.2 mg/kg, Phase 1a and 1b, all tumor types", "result": "11 of 18 and 11 of the 18"},
      {"measurement": "Patients for whom in vivo imaging was feasible", "setting": "[1]; 1.2 mg/kg, BC", "result": "3 of 5"},
      {"measurement": "In Vivo CNR", "setting": "[1]; 1.2 mg/kg, BC", "result": "7.8 and 9.2 and 1.3"},
      {"measurement": "In Vivo TBR", "setting": "[1]; 1.2 mg/kg, BC", "result": "3.9 and 3.4 and 1.2"},
      {"measurement": "Patients for whom in vivo imaging was feasible", "setting": "[1]; 1.2 mg/kg, CRC", "result": "1 of 3"},
      {"measurement": "In Vivo CNR", "setting": "[1]; 1.2 mg/kg, CRC", "result": 7.4},
      {"measurement": "In Vivo TBR", "setting": "[1]; 1.2 mg/kg, CRC", "result": 2.4},
      {"measurement": "Patients for whom in vivo imaging was feasible", "setting": "[1]; 1.2 mg/kg, EC", "result": "0 of 3"},
      {"measurement": "Patients for whom in vivo imaging was feasible", "setting": "[1]; 1.2 mg/kg, HNSCC", "result": "7 of 7"},
      {"measurement": "In Vivo CNR", "setting": "[1]; 1.2 mg/kg, HNSCC", "result": "28.7 and 5.8 and 20.8 and 29.9 and 3.4 and 2.8 and 3.5"},
      {"measurement": "In Vivo TBR", "setting": "[1]; 1.2 mg/kg, HNSCC", "result": "4.7 and 2.1 and 2.9 and 5.4 and 2.3 and 1.8 and 2.7"},
      {"measurement": "Median in vivo TBR", "setting": "[1]; 1.2 mg/kg, mucosal tumors (HNSCC), interquartile range of 1.4", "result": 2.6},
      {"measurement": "Median in vivo CNR", "setting": "[1]; 1.2 mg/kg, mucosal tumors (HNSCC), interquartile range of 17.6", "result": 5.6},
      {"measurement": "Patients in whom fluorescence imaging was feasible (patients with viable tumors)", "setting": "[1]; Phase 1, all 4 tumor types", "result": "29 out of 30"},
      {"measurement": "Patient tumors showing Compound 1 fluorescence intraoperatively", "setting": "[1]; Phase 1a, BC", "result": "Two of the 7 and 2 of 7"},
      {"measurement": "Patient tumors showing Compound 1 fluorescence intraoperatively", "setting": "[1]; Phase 1a, HNSCC", "result": "8 and 8 of 8"},
      {"measurement": "CNR and TBR values", "setting": "[1]; Phase 1a, in vivo tumor and postoperative specimen fluorescence", "result": "2-15"},
      {"measurement": "Intraoperative detection of intraluminal EC tumors", "setting": "[1]; Phase 1b, 3 EC tumors, extraluminal imaging, 1.2 mg/kg", "result": "not detected"},
      {"measurement": "Patient tumors in which Compound 1 fluoresced intraoperatively", "setting": "[1]; Phase 1b, BC, 1.2 mg/kg", "result": "3 of 4"},
      {"measurement": "Patient tumors in which Compound 1 fluoresced intraoperatively", "setting": "[1]; Phase 1b, CRC, 1.2 mg/kg", "result": "2 of 3"},
      {"measurement": "Patient tumors in which Compound 1 fluoresced intraoperatively", "setting": "[1]; Phase 1b, HNSCC, 1.2 mg/kg", "result": "5 of 5"},
      {"measurement": "Patient tumors in which Compound 1 fluoresced intraoperatively", "setting": "[1]; Phase 1b, all tumor types, 1.2 mg/kg", "result": "10/15"},
      {"measurement": "Tumors visualized intraoperatively by Compound 1 fluorescence", "setting": "[1]; CRC", "result": "2 of 3"},
      {"measurement": "Tumors that could not be visualized intraoperatively", "setting": "[1]; CRC (distant rectal tumor)", "result": "1 of 3"},
      {"measurement": "Tumors visualized intraoperatively by Compound 1 fluorescence", "setting": "[1]; HNSCC", "result": 13},
      {"measurement": "Tumors that could not be visualized intraoperatively", "setting": "[1]; deeper seated BC", "result": "6 of 11"},
      {"measurement": "Tumors that could not be visualized intraoperatively", "setting": "[1]; intraluminal EC", "result": "2 of 3"},
      {"measurement": "Tumors visualized intraoperatively by Compound 1 fluorescence", "setting": "[1]; superficially seated BC", "result": "5 of 11"},
      {"measurement": "Intraoperative TBR and CNR values", "setting": "[1]; all patients with feasible intraoperative imaging", "result": "high"},
      {"measurement": "Fluorescence on adding increasing amounts of Compound 1", "setting": "[2]; human plasma with HCl", "result": "increase in fluorescence"},
      {"measurement": "Fluorescence on adding increasing amounts of Compound 1", "setting": "[2]; human plasma, no acid", "result": "did not show any increase in fluorescence"},
      {"measurement": "Adverse effects", "setting": "[3]", "result": "no adverse effects"}
    ]}
  ]
}
